Source: ChEMBL document CHEMBL3301448, “MMV Malaria Box screening against Toxoplasma gondii and Entamoeba histolytica”
pIC50: −log10 of the molar value.

Legend:
Toxoplasma gondii = experiment: MMV: A total of 100ul of inoculum was added to each well (parasite/cell ratio, ~10:1; final volume, 200 ul). Six hours after inoculation, nonadherent parasites were removed, and 100 ul of complete DMEM (1% penicillin-streptomycin, 3% FBS) supplemented with inhibitors at different concentrations (2-fold serial dilutions starting from 30 uM) was added to all except the negative-control wells. Positive controls, consisting of pyrimethamine (PYR) and sulfadiazine (SDZ) (20-mg/ml stocks in DMSO), were tested at a 2mg/ml final concentration. Each test was performed in triplicate.; type: functional, organism-based; settings: 6 h
Entamoeba histolytica = experiment: MMV: Primary screening was performed with each compound at a 30 uM final concentration and in triplicate in sealed 96-well polystyrene microtiter plates. Parasite inocula (100 ul) comprising 20000 parasites/ml were added to each well and grown at 37 degrees C in a humidified atmosphere of 5% CO2 for 72 h. Positive controls consisted of metronidazole at 1 mg/ml. The growth of E. histolytica trophozoites in each well was determined microscopically by measuring the diameters of the confluent cells in drug-containing wells relative to those in the nega- tive-control wells.; type: functional, organism-based

Row | SMILES | pIC50 (Toxoplasma gondii) | pIC50 (Entamoeba histolytica)
1 | COc1cccc(Cn2c(Oc3ccccc3)nc3c2c(=O)n(C)c(=O)n3C)c1 | < 4.52 | < 4.52
2 | CCOc1ccccc1CN1CCc2nc3cc(C(C)(C)C)nn3c(O)c2C1 | < 4.52 | < 4.52
3 | Cc1cc(N2CCCC2)nc(Nc2ccc(NC(=O)CCc3ccccc3)cc2)n1 | < 4.52 | < 4.52
4 | CN1CCN(c2ncnc3c2[nH]c2ccc(Cl)cc23)CC1 | < 4.52 | < 4.52
5 | O=C1c2ccccc2-c2nnc(-c3ccc(Br)cc3)cc21 | < 4.52 | < 4.52
6 | CN(C)CCNc1cc(-c2ccccc2)nc2ccccc12 | 5.52 | < 4.52
7 | CCOC(=O)C1=C(C)N=c2sc(=Cc3ccccc3O)c(=O)n2C1c1ccc(OC)c2ccccc12 (configuration not stated) | < 4.52 | < 4.52
8 | CCOC(=O)C1=C(C)N=c2sc(=Cc3cc(Cl)ccc3O)c(=O)n2C1c1ccc(OC)cc1 (configuration not stated) | 4.60 | < 4.52
9 | Cc1nc2ccccc2c(O)c1CC=C(Cl)Cl | < 4.52 | < 4.52
10 | FC(F)(F)c1cccc(Nc2nc3ccccc3nc2Nc2cccc(C(F)(F)F)c2)c1 | < 4.52 | < 4.52
11 | COc1ccc2nc(C)cc(Nc3cccc(O)c3)c2c1 | < 4.52 | < 4.52
12 | CN(C)CCCNCc1ccc(-c2ccc(F)c(Cl)c2)o1 | < 4.52 | < 4.52
13 | O=c1nc(C=Cc2ccc(Br)cc2)oc2ccccc12 | < 4.52 | < 4.52
14 | COc1ccc2nc(N)nc(C)c2c1 | < 4.52 | < 4.52
15 | CC(=O)c1ccc(NC(=O)CSc2nc(-c3ccccc3Cl)ns2)cc1 | 4.83 | < 4.52
16 | O=C(NC1CCCCC1)C(c1cccs1)N(CCc1ccccc1)C(=O)c1ccco1 (configuration not stated) | < 4.52 | < 4.52
17 | COc1ccc(C(=O)NC(c2ccc(Cl)cc2Cl)c2cc(Cl)c3cccnc3c2O)cc1 (configuration not stated) | < 4.52 | < 4.52
18 | CCC(=O)Nc1nnc(Cc2ccc(OC)c(OC)c2)s1 | < 4.52 | < 4.52
19 | c1ccc2c(NCCCCCCNc3c4c(nc5ccccc35)CCCC4)c3c(nc2c1)CCCC3 | < 4.52 | < 4.52
20 | O=C(NCCCN1CCC(N2CCCCC2)CC1)C1=Cc2cc(Br)ccc2OC1 | < 4.52 | < 4.52
21 | Cc1ccnc(NC(c2cccc(OCc3ccccc3)c2)c2ccc3cccnc3c2O)c1 (configuration not stated) | < 4.52 | < 4.52
22 | Nc1ccc(-c2nc3cc(Cc4ccc5[nH]c(-c6ccc(N)cc6)nc5c4)ccc3[nH]2)cc1 | < 4.52 | < 4.52

Row | SMILES | pIC50 (Toxoplasma gondii) | pIC50 (Entamoeba histolytica)
23 | CCCCOC(=O)c1ccc(Nc2cc(C)nc3ccc(OC)cc23)cc1 | < 4.52 | < 4.52
24 | O=c1cc(NC2CCN(CCCc3ccccc3)CC2)c2cc(Cl)ccc2o1 | < 4.52 | < 4.52
25 | Cc1ccc(OCCCCCCNCCO)c(C)c1 | < 4.52 | < 4.52
26 | COc1ccc(C2NCCc3c2[nH]c2ccccc32)cc1CN1CCN(c2ccc(F)cc2)CC1 (configuration not stated) | < 4.52 | < 4.52
27 | COc1cccc(C(=O)Nc2ccc(-c3nc4ccccc4[nH]3)cc2)c1 | < 4.52 | < 4.52
28 | CCOc1ccc(-n2cc(-c3ccccc3)c3c(SCc4cc(C)ccc4C)ncnc32)cc1 | 4.95 | < 4.52
29 | Cc1ccc(C)c(Cn2c(N3CCC(C(=O)NCc4cccs4)CC3)nc3ccccc32)c1 | < 4.52 | < 4.52
30 | Cc1ccccc1OCCSc1nc2ccc(NC(=O)c3cccs3)cc2s1 | < 4.52 | < 4.52
31 | CC1CCN(Cc2c(O)ccc3cc(-c4nc5ccccc5s4)c(=O)oc23)CC1 | < 4.52 | < 4.52
32 | Cc1ccc2cc3c(N)c4c(C)ccc(C)c4nc3nc2c1 | < 4.52 | < 4.52
33 | CC(C)CCNCC(O)Cn1c2ccccc2c2ccccc21 (configuration not stated) | < 4.52 | < 4.52
34 | COc1ccc(C2C(C(=O)Nc3cccc(OC)c3)c3ccccc3C(=O)N2C2CCCCC2)cc1 (configuration not stated) | < 4.52 | < 4.52
35 | CCOC(=O)c1cnc2ccc(Cl)cc2c1NCCCN(C)C | < 4.52 | < 4.52
36 | CCOc1ccccc1NC(=O)CN1CCN(C(=O)c2ccco2)CC1 | 6.72 | < 4.52
37 | c1ccc2c(NCCc3c[nH]c4ccccc34)c3ccccc3nc2c1 | 5.52 | < 4.52
38 | O=C(Nc1ccc(C23CC4CC(CC(c5ccccc5)(C4)C2)C3)cc1)c1cccs1 | < 4.52 | < 4.52
39 | CCN(CC)CCCNc1ccnc2cc3ccccc3cc12 | < 4.52 | < 4.52
40 | O=C1c2ccccc2C2=Nc3ccccc3SC(c3cccc(F)c3)C12 (configuration not stated) | 4.73 | < 4.52
41 | Cc1ccccc1OCCSc1nc2ccc(NC(=O)c3ccccc3)cc2s1 | < 4.52 | < 4.52
42 | CCOC(=O)c1cnc2c(C)cccc2c1Nc1ccc(C(C)=O)cc1 | < 4.52 | < 4.52
43 | O=C(Nc1ccc(-c2nc3cc4ccccc4cc3[nH]2)cc1)c1cccc(Br)c1 | < 4.52 | < 4.52
44 | Cc1ccc(C2CC(C(F)(F)F)n3nc(C(=O)N4CCN(C(c5ccccc5)c5ccccc5)CC4)cc3N2)cc1 (configuration not stated) | < 4.52 | < 4.52

Row | SMILES | pIC50 (Toxoplasma gondii) | pIC50 (Entamoeba histolytica)
45 | Cc1ccc2nc(C)cc(Nc3cccc(C(F)(F)F)c3)c2c1 | < 4.52 | < 4.52
46 | CC(C)(C)c1ccc(C(=O)Nc2c3c(nn2-c2cccc(Cl)c2)CSC3)cc1 | < 4.52 | < 4.52
47 | CCOc1cc2c(cc1OCC)C(c1cc(Cl)c(O)c(OCC)c1)NCC2 (configuration not stated) | < 4.52 | < 4.52
48 | COc1ccc(N2CCN(C(CNC(=O)CC(C)(C)C)c3ccc4c(c3)OCO4)CC2)cc1 (configuration not stated) | < 4.52 | < 4.52
49 | COc1cccc(C(=O)NC(c2ccc(C)cc2)c2cc(Cl)c3cccnc3c2O)c1 (configuration not stated) | < 4.52 | < 4.52
50 | CCCCCCn1c(=N)n(CC(O)COc2cccc(C)c2)c2ccccc21 (configuration not stated) | < 4.52 | < 4.52
51 | Oc1ccc(Br)cc1CN1CCN(Cc2cccc(F)c2)CC1 | < 4.52 | < 4.52
52 | COc1ccc(-c2cc(=O)oc3c4c(ccc23)OCN(Cc2ccc(F)cc2)C4)cc1 | < 4.52 | < 4.52
53 | CCOC(=O)C1(Cc2ccccc2)CCN(Cc2cccc(OC)c2O)CC1 | < 4.52 | < 4.52
54 | CCCOCc1cc(CN2CCN(c3cccc(Cl)c3)CC2)c(O)c2ncccc12 | < 4.52 | < 4.52
55 | Oc1ccc(C(=C(Cl)Cl)c2ccc(O)cc2)cc1 | < 4.52 | < 4.52
56 | CCOc1ccc2c(c1)CN(Cc1ccc(Cl)cc1)CO2 | < 4.52 | < 4.52
57 | CC(C)(C)c1ccc2c(c1)CN(Cc1ccc(Cl)cc1)CO2 | 4.69 | < 4.52
58 | CCCCC(O)(c1ccc(Cl)cc1)C(CN1CCOCC1)c1ccc(Cl)cc1 (configuration not stated) | < 4.52 | < 4.52
59 | CN(C)c1ccc(N2C(N)=NC(N)=NC2(C)C)cc1 | 4.54 | < 4.52
60 | COc1ccc(OC)c(C2C3=C(CC(C)(C)CC3=O)N(c3ccc(Cl)c(Cl)c3)C3=C2C(=O)CC(C)(C)C3)c1 | < 4.52 | < 4.52
61 | COc1ccc(C(=O)NC(c2ccccc2Cl)c2cc(Cl)c3cccnc3c2O)cc1 (configuration not stated) | < 4.52 | < 4.52
62 | Cc1cc(=O)oc2c1ccc1oc(C(=O)c3ccccc3)c(C)c12 | < 4.52 | < 4.52
63 | COc1ccc(CN2CCN(Cc3ccccc3)CC2)c(O)c1 | < 4.52 | < 4.52
64 | COc1ccc2c(c1OC)C(=O)N1c3ccccc3N=C(c3ccc(C)cc3)CC21 (configuration not stated) | < 4.52 | < 4.52
65 | Oc1c(CN2CCN(c3ccccc3F)CC2)cc(Br)c2cccnc12 | < 4.52 | < 4.52
66 | CCCCCCc1cc(O)c2c3c(c(=O)oc2c1)CCC(C)C3 (configuration not stated) | < 4.52 | < 4.52

Row | SMILES | pIC50 (Toxoplasma gondii) | pIC50 (Entamoeba histolytica)
67 | OC(CNCc1ccccc1)Cn1c2ccccc2c2ccccc21 (configuration not stated) | < 4.52 | < 4.52
68 | CCCc1c(C)nc2ccc(Br)cc2c1O | < 4.52 | < 4.52
69 | COc1ccc(CCNC(=O)c2cc(S(=O)(=O)N3CC(C)CC(C)C3)ccc2Sc2ccc(F)cc2)cc1OC (configuration not stated) | < 4.52 | < 4.52
70 | CCOc1ccc(Nc2c3ccccc3nc3ccccc23)cc1 | < 4.52 | < 4.52
71 | CC1=C(CC(=O)c2cccc([N+](=O)[O-])c2)C(=O)c2ccccc2C1=O | < 4.52 | < 4.52
72 | OC1CCCCC1C1(NC(=S)Nc2ccccc2)CCCCC1 (configuration not stated) | < 4.52 | < 4.52
73 | OC1=C2C(=Nc3ccccc3SC2c2ccc(Br)cc2)c2ccccc21 (configuration not stated) | < 4.52 | < 4.52
74 | COc1ccc(C)c2sc(N(Cc3cccnc3)C(=O)c3ccc(C#N)cc3)nc12 | < 4.52 | < 4.52
75 | Clc1ccc2c(N3CCCC3)ccnc2c1 | 5.83 | < 4.52
76 | CCCCCCC(O)(c1ccc(F)cc1)C(CN1CCOCC1)c1ccccc1 (configuration not stated) | < 4.52 | < 4.52
77 | COc1cc(OC)cc(N2C(=O)N(Cc3ccc(C(C)(C)C)cc3)c3ccccc3S2(=O)=O)c1 | < 4.52 | < 4.52
78 | COc1ccc(C(=O)C2CC2c2ccc(Cl)cc2)cc1 (configuration not stated) | < 4.52 | < 4.52
79 | CCCCCn1c(=N)n(CC(O)COc2cccc(C)c2)c2ccccc21 (configuration not stated) | 4.75 | < 4.52
80 | O=c1c2c([nH]c3ccccc13)CCCC2 | < 4.52 | < 4.52
81 | COc1ccccc1N1C(=N)SC(=Cc2ccc(OCc3ccccc3F)cc2)C1=O | < 4.52 | < 4.52
82 | CCN1CCN(c2c(C(=O)c3ccccc3)cnc3cc(OC)c(OC)cc23)CC1 | < 4.52 | < 4.52
83 | Cc1c(C)n(CC(O)CNC2CCCCC2C)c2ccccc12 (configuration not stated) | < 4.52 | < 4.52
84 | Cc1ccc(S(=O)(=O)c2c(COC(=O)c3cccc(C)c3)c(-c3ccccc3)nn2C)cc1 | < 4.52 | < 4.52
85 | CCOC(=O)c1c[nH]c2c(CC)cccc2c1=O | < 4.52 | < 4.52
86 | CCCCN(CCCC)S(=O)(=O)c1ccc(NC(=O)c2ccco2)cc1 | 5.97 | < 4.52
